Assay results: patent publication US20050054006A1, “Combinatorial fluorescent library based on the styryl scaffold” (New York University, priority 2003, published 2005)

Experiments:
[1] = test system: UACC-62 human melanoma cells; assay: Organelle localization in live cells by fluorescence microscopy; conditions: live UACC-62 cells, fluorescence microscope λex=405, 490, 570 nm; λem>510 nm
[2] = Fluorescence excitation/emission of the styryl dye library compounds; type: physicochemical

Row | SMILES | LOCALIZATION [1] | EM(nm) ([2]; EX/EM peak no. 1) | EX(nm) ([2]; EX/EM peak no. 1) | EM(nm) ([2]; EX/EM peak no. 2) | EX(nm) ([2]; EX/EM peak no. 2)
1 | C[n+]1ccc(C=CCc2ccccc2)cc1.[I-] [Compound A1] | CYTO | 490 | 390 nm | – | –
2 | C[n+]1ccc(C=Cc2ccc(OCc3ccccc3)c(OCc3ccccc3)c2)cc1.[I-] [Compound A12] | MITO | 540 | 330-460 nm | – | –
3 | COc1ccc(C=Cc2cc[n+](C)cc2)c2ccccc12.[I-] [Compound A14] | MITO | 550 | 430(broad) nm | – | –
4 | CN(C)c1ccc(C=Cc2cc[n+](C)cc2)cc1.[I-] [Compound A19] | MITO and NUCLEOLI | 600 | 460 nm | – | –
5 | COc1ccc2ccccc2c1C=Cc1cc[n+](C)cc1.[I-] [Compound A23] | CYTO and MITO | 540 | 450 (broad) nm | – | –
6 | C[n+]1ccc(C=Cc2c[nH]c3ccccc23)cc1.[I-] [Compound A24] | CYTO | 530 | 400) nm | – | –
7 | CN(C)c1ccc(C=Cc2cc[n+](C)cc2)c2ccccc12.[I-] [Compound A27] | CYTO | 640 | 450 nm | – | –
8 | C[n+]1ccc(C=Cc2cccc3ccccc23)cc1.[I-] [Compound A32] | MITO and CYTO and VESICLE | 510 | 400 nm | – | –
9 | COc1ccc(/C=C/c2cc[n+](C34CC5CC(CC(C5)C3)C4)cc2)cc1OC.[Br-] [Compound B11] | MITO | 540 | 340-440 nm | – | –
10 | Oc1ccc(C=Cc2cc[n+](C34CC5CC(CC(C5)C3)C4)cc2)cc1.[Br-] [Compound B16] | MITO | 590 | 400 nm | – | –
11 | O=[N+]([O-])c1ccc(C=Cc2cc[n+](C34CC5CC(CC(C5)C3)C4)cc2)cc1.[Br-] [Compound B22] | MITO | 600 | 410-420 nm | – | –
12 | O=Cc1ccccc1C=Cc1cc[n+](C23CC4CC(CC(C4)C2)C3)cc1.[Br-] [Compound B25] | CYTO | 570 | 430 nm | – | –
13 | Fc1c(F)c(F)c(C=Cc2cc[n+](C34CC5CC(CC(C5)C3)C4)cc2)c(F)c1F.[Br-] [Compound B31] | MITO | 580 | 430 nm | – | –
14 | C(=Cc1ccc2ccccc2c1)c1cc[n+](C23CC4CC(CC(C4)C2)C3)cc1.[Br-] [Compound B33] | MITO and CYTO and VESICLE | 500 | 350-420 nm | 580 | 360-400 nm
15 | O=[N+]([O-])c1ccccc1C=CC=Cc1cc[n+](C23CC4CC(CC(C4)C2)C3)cc1.[Br-] [Compound B36] | MITO | 520 | 420 nm | – | –
16 | CN(C)c1ccc(C=CC=Cc2cc[n+](C34CC5CC(CC(C5)C3)C4)cc2)cc1.[Br-] [Compound B37] | MITO | 700 | – | – | –
17 | COc1cc(OC)c(OC)cc1C=Cc1cc[n+](C23CC4CC(CC(C4)C2)C3)cc1.[Br-] [Compound B38] | NUCLEI and MITO | 580 | 400-480 nm | – | –
18 | C[n+]1ccccc1C=Cc1ccc(OCc2ccccc2)c(OCc2ccccc2)c1.[I-] [Compound C12] | MITO? and ER? | 520 | 390 (broad) nm | – | –
19 | CN(C)c1ccc(C=Cc2cccc[n+]2C)cc1.[I-] [Compound C19] | MITO | 580 | 460 (broad) nm | – | –
20 | COc1ccc2ccccc2c1C=Cc1cccc[n+]1C.[I-] [Compound C23] | CYTO | 530 | 420 nm | – | –

Row | SMILES | LOCALIZATION [1] | EM(nm) ([2]; EX/EM peak no. 1) | EX(nm) ([2]; EX/EM peak no. 1) | EM(nm) ([2]; EX/EM peak no. 2) | EX(nm) ([2]; EX/EM peak no. 2)
21 | COc1ccc2ccccc2c1/C=C/c1c(C)ccc[n+]1C.[I-] [Compound D23] | CYTO | 510 | 420(broad) nm | – | –
22 | Cc1ccc[n+](C)c1C=CC=Cc1ccc(N(C)C)cc1.[I-] [Compound D37] | MITO | 650 | 470(broad) nm | – | –
23 | CCc1ccc(C=Cc2ccc(N(C)C)cc2)[n+](C)c1.[I-] [Compound E19] | MITO | 580 | 460(broad) nm | – | –
24 | CCc1ccc(C=Cc2c(OC)ccc3ccccc23)[n+](C)c1.[I-] [Compound E23] | CYTO | 510 | 420(broad) nm | – | –
25 | CCc1ccc(C=C/C=C/c2ccc(N(C)C)cc2)[n+](C)c1.[I-] [Compound E37] | MITO and NUCLEOLI | 670 | 520 nm | – | –
26 | C[n+]1ccc(C=Cc2c[nH]c3ccccc23)cc1Br.[I-] [Compound F24] | VESICLE | 550 | 460 nm | – | –
27 | Cc1ccc(C=Cc2cc[n+](C)c3ccccc23)cc1.[I-] [Compound G8] | MITO | 650 | 440 nm | – | –
28 | COc1ccc2c(ccc(C=Cc3cc(OC)c(OC)c(OC)c3)[n+]2C)c1.[I-] [Compound I13] | – | 580 | 430 nm | – | –
29 | COc1ccc2c(ccc(C=Cc3ccc(OC)c(O)c3)[n+]2C)c1.[I-] [Compound I15] | – | 520 | 360 nm | – | –
30 | COc1ccc2c(ccc(C=Cc3ccc([N+](=O)[O-])cc3)[n+]2C)c1.[I-] [Compound I22] | – | 510 | 360 nm | – | –
31 | COc1ccc2c(ccc(C=Cc3c(OC)ccc4ccccc34)[n+]2C)c1.[I-] [Compound I23] | – | 550 | 340-360 nm | – | –
32 | COc1ccc2c(ccc(C=Cc3ccccc3F)[n+]2C)c1.[I-] [Compound I29] | – | 580 | – | – | –
33 | COc1ccc2c(ccc(C=Cc3c4ccccc4cc4ccccc34)[n+]2C)c1.[I-] [Compound I34] | – | 650 | 490 nm | – | –
34 | COc1ccc2c(ccc(C=CC=Cc3ccccc3[N+](=O)[O-])[n+]2C)c1.[I-] [Compound I36] | – | 530 | 360 nm | – | –
35 | COc1ccc2c(ccc(C=Cc3ccc4c(c3)OCO4)[n+]2C)c1.[I-] [Compound I39] | – | 500 | 380 nm | – | –
36 | COc1ccc2c(ccc(C=Cc3ccc4ccc5cccc6ccc3c4c56)[n+]2C)c1.[I-] [Compound I41] | – | 630 | 480 nm | – | –
37 | COc1ccc(C=Cc2cc[n+](C)c(-c3cc(C)ccn3)c2)cc1OC.[I-] [Compound J11] | – | 560 | 420 nm | – | –
38 | COc1cc(C=Cc2cc[n+](C)c(-c3cc(C)ccn3)c2)cc(OC)c1OC.[I-] [Compound J13] | – | 590 | – | – | –
39 | COc1ccc(C=Cc2cc[n+](C)c(-c3cc(C)ccn3)c2)c2ccccc12.[I-] [Compound J14] | – | 580 | 420-480 nm | – | –
40 | COc1ccc2ccccc2c1C=Cc1cc[n+](C)c(-c2cc(C)ccn2)c1.[I-] [Compound J23] | – | 570 | 430-460 nm | – | –

Row | SMILES | LOCALIZATION [1] | EM(nm) ([2]; EX/EM peak no. 1) | EX(nm) ([2]; EX/EM peak no. 1) | EM(nm) ([2]; EX/EM peak no. 2) | EX(nm) ([2]; EX/EM peak no. 2)
41 | Cc1ccnc(-c2cc(/C=C/c3c[nH]c4ccccc34)cc[n+]2C)c1.[I-] [Compound J24] | – | 560 | 420-500 nm | – | –
42 | Cc1ccnc(-c2cc(C=Cc3ccc(N(C)C)c4ccccc34)cc[n+]2C)c1.[I-] [Compound J27] | – | 670 | 460 nm | – | –
43 | Cc1ccnc(-c2cc(C=Cc3c4ccccc4cc4ccccc34)cc[n+]2C)c1.[I-] [Compound J34] | – | 630 | 430 nm | – | –
44 | Cc1ccnc(-c2cc(C=CC=Cc3ccccc3[N+](=O)[O-])cc[n+]2C)c1.[I-] [Compound J36] | – | 540 | 420 nm | – | –
45 | Cc1ccnc(-c2cc(C=CC=Cc3ccc(N(C)C)cc3)cc[n+]2C)c1.[I-] [Compound J37] | – | 730 | 550(broad) nm | – | –
46 | Cc1ccnc(-c2cc(/C=C/c3ccccn3)cc[n+]2C)c1.[I-] [Compound J40] | – | 580 | 400 nm | – | –
47 | Cc1ccnc(-c2cc(C=Cc3ccc4ccc5cccc6ccc3c4c56)cc[n+]2C)c1.[I-] [Compound J41] | – | 630 | 460 nm | – | –
48 | Cc1cccc(C=Cc2ccc(OCc3ccccc3)c(OCc3ccccc3)c2)[n+]1C.[I-] [Compound L12] | – | 520 | 390 nm | – | –
49 | COc1cc(C=Cc2cccc(C)[n+]2C)cc(OC)c1OC.[I-] [Compound L13] | – | 540 | 380 nm | – | –
50 | COc1ccc(C=Cc2cccc(C)[n+]2C)c2ccccc12.[I-] [Compound L14] | – | 570 | 420 (broad) nm | – | –
51 | COc1ccc(C=Cc2cccc(C)[n+]2C)cc1O.[I-] [Compound L15] | – | 570 | 390 nm | – | –
52 | Cc1cccc(C=Cc2ccc(O)cc2)[n+]1C.[I-] [Compound L16] | – | 500 | 390 nm | – | –
53 | Cc1cccc(/C=C/c2ccc(-c3ccccc3)cc2)[n+]1C.[I-] [Compound L17] | – | 500 | 420 nm | – | –
54 | Cc1cccc(/C=C/c2c[nH]c3ccccc23)[n+]1C.[I-] [Compound L24] | – | 500 | 430 nm | – | –
55 | Cc1cccc(C=Cc2ccc(N(C)C)c3ccccc23)[n+]1C.[I-] [Compound L27] | – | 620 | 430 nm | – | –
56 | Cc1cccc(C=C/C=C/c2ccc(N(C)C)cc2)[n+]1C.[I-] [Compound L37] | – | 680 | 480 nm | – | –
57 | COc1cc(OC)c(OC)cc1C=Cc1cccc(C)[n+]1C.[I-] [Compound L38] | – | 570 | 420 nm | – | –
58 | Cc1cccc(C=Cc2ccc3c(c2)OCO3)[n+]1C.[I-] [Compound L39] | – | 510 | 390 nm | – | –
59 | Cc1cccc(/C=C/c2ccccn2)[n+]1C.[I-] [Compound L40] | – | 620 | 380 nm | – | –
